# Legend:
# [1] = system: Tyrosine-protein kinase ABL1 (Homo sapiens), P00519 [F317L]; details: Compound concentration 1000.0 nM
# [2] = system: Tyrosine-protein kinase ABL1 (Homo sapiens), P00519 [Q252H]; details: Compound concentration 1000.0 nM
# [3] = target: ALK tyrosine kinase receptor (Homo sapiens) (UniProt Q9UM73); details: Compound concentration 1000.0 nM
# [4] = target: Calcium/calmodulin-dependent protein kinase type II subunit delta (Homo sapiens) (UniProt Q13557); details: Compound concentration 1000.0 nM
# [5] = target: Peripheral plasma membrane protein CASK (Homo sapiens) (UniProt O14936); details: Compound concentration 1000.0 nM
# [6] = system: Epidermal growth factor receptor (Homo sapiens), P00533 [UNDEFINED MUTATION]; details: Compound concentration 1000.0 nM
# [7] = target: Receptor-type tyrosine-protein kinase FLT3 (Homo sapiens) (UniProt P36888); details: Compound concentration 1000.0 nM
# [8] = target: Microtubule-associated serine/threonine-protein kinase 1 (Homo sapiens) (UniProt Q9Y2H9); details: Compound concentration 1000.0 nM
# [9] = target: Hepatocyte growth factor receptor (Homo sapiens) (UniProt P08581); details: Compound concentration 1000.0 nM
# Hepatocyte growth factor receptor (Homo sapiens), sequence (P08581 whole entry): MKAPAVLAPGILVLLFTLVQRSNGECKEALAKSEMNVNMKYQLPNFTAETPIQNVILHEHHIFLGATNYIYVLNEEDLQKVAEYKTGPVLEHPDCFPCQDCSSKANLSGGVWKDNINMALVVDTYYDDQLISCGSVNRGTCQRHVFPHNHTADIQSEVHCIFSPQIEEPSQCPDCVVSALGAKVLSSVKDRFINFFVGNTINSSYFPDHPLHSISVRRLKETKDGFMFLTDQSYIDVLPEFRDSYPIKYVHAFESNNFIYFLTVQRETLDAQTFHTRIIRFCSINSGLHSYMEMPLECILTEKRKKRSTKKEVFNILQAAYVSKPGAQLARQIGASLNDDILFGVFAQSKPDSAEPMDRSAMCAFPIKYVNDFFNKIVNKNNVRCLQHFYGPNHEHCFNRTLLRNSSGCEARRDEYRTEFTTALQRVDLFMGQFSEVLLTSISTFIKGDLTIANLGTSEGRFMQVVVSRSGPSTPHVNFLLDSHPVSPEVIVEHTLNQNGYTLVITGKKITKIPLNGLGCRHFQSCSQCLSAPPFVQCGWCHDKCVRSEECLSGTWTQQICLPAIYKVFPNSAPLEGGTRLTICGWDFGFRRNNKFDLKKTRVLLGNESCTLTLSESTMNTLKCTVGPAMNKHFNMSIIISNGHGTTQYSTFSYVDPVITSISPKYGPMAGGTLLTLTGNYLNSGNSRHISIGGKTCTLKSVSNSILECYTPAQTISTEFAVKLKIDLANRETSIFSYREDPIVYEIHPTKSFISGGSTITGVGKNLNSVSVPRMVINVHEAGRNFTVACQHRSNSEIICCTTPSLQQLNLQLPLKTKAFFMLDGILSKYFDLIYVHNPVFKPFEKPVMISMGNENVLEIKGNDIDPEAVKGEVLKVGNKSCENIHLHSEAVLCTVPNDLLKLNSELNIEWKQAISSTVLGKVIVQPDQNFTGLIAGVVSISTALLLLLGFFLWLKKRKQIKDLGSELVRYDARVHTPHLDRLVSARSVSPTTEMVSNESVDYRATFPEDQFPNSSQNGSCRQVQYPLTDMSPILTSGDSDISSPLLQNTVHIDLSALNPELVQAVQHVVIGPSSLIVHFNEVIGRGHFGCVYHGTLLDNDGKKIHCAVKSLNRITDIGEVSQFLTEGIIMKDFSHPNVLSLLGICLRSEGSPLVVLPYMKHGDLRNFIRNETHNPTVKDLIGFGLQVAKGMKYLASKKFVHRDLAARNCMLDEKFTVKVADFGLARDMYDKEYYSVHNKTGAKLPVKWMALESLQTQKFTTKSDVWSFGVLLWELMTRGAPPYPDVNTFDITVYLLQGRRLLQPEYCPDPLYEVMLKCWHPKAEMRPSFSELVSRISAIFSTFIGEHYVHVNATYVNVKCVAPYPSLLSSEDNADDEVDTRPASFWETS
# [10] = target: Dual specificity mitogen-activated protein kinase kinase 7 (Homo sapiens) (UniProt O14733); details: Compound concentration 1000.0 nM
# [11] = target: Serine/threonine-protein kinase MRCK beta (Homo sapiens) (UniProt Q9Y5S2); details: Compound concentration 1000.0 nM
# [12] = target: Serine/threonine-protein kinase Nek7 (Homo sapiens) (UniProt Q8TDX7); details: Compound concentration 1000.0 nM
# Serine/threonine-protein kinase Nek7 (Homo sapiens), sequence (Q8TDX7 whole entry, looked up): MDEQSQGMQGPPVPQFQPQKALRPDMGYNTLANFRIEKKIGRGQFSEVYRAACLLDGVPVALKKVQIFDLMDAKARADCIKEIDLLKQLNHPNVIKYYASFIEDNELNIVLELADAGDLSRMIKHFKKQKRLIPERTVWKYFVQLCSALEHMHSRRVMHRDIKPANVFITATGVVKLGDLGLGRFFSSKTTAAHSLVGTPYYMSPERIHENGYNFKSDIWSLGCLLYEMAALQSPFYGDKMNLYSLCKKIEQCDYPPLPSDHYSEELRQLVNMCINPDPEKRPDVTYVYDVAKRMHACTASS
# [13] = target: Mitogen-activated protein kinase 12 (Homo sapiens) (UniProt P53778); details: Compound concentration 1000.0 nM
# [14] = target: Cyclin-dependent kinase 16 (Homo sapiens) (UniProt Q00536); details: Compound concentration 1000.0 nM
# [15] = system: Phosphatidylinositol 4,5-bisphosphate 3-kinase catalytic subunit alpha isoform (Homo sapiens), P42336 [E542K]; details: Compound concentration 1000.0 nM
# [16] = system: Phosphatidylinositol 4,5-bisphosphate 3-kinase catalytic subunit alpha isoform (Homo sapiens), P42336 [E545A]; details: Compound concentration 1000.0 nM
# [17] = system: Phosphatidylinositol 4,5-bisphosphate 3-kinase catalytic subunit alpha isoform (Homo sapiens), P42336 [H1047L]; details: Compound concentration 1000.0 nM
# [18] = target: Serine/threonine-protein kinase PknB (Mycobacterium tuberculosis) (UniProt P9WI81); details: Compound concentration 1000.0 nM
# [19] = system: Proto-oncogene tyrosine-protein kinase receptor Ret (Homo sapiens), P07949 [M918T]; details: Compound concentration 1000.0 nM
# Proto-oncogene tyrosine-protein kinase receptor Ret (Homo sapiens), P07949 [M918T], sequence (P07949 whole entry M918T): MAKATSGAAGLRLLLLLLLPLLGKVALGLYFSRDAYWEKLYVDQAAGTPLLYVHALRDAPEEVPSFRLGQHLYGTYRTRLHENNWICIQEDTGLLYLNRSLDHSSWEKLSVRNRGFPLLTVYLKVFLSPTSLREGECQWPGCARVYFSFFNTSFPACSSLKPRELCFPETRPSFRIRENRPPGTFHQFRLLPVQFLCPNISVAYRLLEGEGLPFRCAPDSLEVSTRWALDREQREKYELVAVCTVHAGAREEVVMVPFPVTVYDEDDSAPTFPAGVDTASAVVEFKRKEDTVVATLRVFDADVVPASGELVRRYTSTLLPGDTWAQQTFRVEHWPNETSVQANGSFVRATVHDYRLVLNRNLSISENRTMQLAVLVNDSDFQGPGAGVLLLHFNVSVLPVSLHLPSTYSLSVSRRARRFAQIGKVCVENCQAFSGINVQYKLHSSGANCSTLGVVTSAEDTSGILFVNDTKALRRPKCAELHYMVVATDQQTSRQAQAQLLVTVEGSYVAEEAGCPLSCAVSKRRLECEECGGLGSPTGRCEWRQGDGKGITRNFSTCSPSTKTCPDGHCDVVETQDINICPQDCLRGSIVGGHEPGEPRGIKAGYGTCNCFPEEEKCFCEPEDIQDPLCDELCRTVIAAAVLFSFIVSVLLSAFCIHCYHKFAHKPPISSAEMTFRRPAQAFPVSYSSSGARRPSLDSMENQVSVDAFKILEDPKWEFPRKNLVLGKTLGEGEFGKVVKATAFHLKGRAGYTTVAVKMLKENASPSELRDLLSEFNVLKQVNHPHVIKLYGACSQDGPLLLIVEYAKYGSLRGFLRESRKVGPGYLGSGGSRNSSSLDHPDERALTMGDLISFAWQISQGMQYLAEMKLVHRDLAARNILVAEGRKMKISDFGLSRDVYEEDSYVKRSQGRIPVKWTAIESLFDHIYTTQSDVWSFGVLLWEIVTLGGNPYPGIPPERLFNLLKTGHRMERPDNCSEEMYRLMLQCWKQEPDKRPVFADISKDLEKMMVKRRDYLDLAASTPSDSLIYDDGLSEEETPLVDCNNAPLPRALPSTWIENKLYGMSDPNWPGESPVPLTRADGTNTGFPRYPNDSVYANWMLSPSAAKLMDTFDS
# [20] = system: Proto-oncogene tyrosine-protein kinase receptor Ret (Homo sapiens), P07949 [V804L]; details: Compound concentration 1000.0 nM
# Proto-oncogene tyrosine-protein kinase receptor Ret (Homo sapiens), P07949 [V804L], sequence (P07949 whole entry V804L): as the sequence (P07949 whole entry M918T) above, with V804L, T918M counted along it
# [21] = target: Serine/threonine-protein kinase RIO2 (Homo sapiens) (UniProt Q9BVS4); details: Compound concentration 1000.0 nM
# [22] = target: Proto-oncogene tyrosine-protein kinase ROS (Homo sapiens) (UniProt P08922); details: Compound concentration 1000.0 nM
# [23] = target: Ribosomal protein S6 kinase alpha-3 (Homo sapiens) (UniProt P51812); details: Compound concentration 1000.0 nM
# [24] = target: Ribosomal protein S6 kinase alpha-2 (Homo sapiens) (UniProt Q15349); details: Compound concentration 1000.0 nM
# [25] = target: Ribosomal protein S6 kinase alpha-6 (Homo sapiens) (UniProt Q9UK32); details: Compound concentration 1000.0 nM
# [26] = target: NUAK family SNF1-like kinase 2 (Homo sapiens) (UniProt Q9H093); details: Compound concentration 1000.0 nM
# [27] = target: Tyrosine-protein kinase Srms (Homo sapiens) (UniProt Q9H3Y6); details: Compound concentration 1000.0 nM
# Tyrosine-protein kinase Srms (Homo sapiens), sequence (Q9H3Y6 whole entry): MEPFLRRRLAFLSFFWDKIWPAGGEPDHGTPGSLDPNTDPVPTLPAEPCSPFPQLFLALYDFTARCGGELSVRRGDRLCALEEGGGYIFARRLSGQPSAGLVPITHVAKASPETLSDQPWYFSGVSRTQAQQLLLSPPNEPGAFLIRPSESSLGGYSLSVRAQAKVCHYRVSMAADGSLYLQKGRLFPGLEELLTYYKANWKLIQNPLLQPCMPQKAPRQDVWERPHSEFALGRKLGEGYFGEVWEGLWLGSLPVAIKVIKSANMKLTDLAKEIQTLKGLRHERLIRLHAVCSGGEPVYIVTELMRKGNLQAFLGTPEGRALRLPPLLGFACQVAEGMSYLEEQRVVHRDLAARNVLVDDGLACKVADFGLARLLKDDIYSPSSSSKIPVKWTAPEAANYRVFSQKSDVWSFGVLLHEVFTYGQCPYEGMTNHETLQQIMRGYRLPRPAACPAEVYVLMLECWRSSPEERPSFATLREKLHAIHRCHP
# [28] = target: Serine/threonine-protein kinase 33 (Homo sapiens) (UniProt Q9BYT3); details: Compound concentration 1000.0 nM
# [29] = target: Angiopoietin-1 receptor (Homo sapiens) (UniProt Q02763); details: Compound concentration 1000.0 nM
# [30] = target: Serine/threonine-protein kinase WNK3 (Homo sapiens) (UniProt Q9BYP7); details: Compound concentration 1000.0 nM
# [31] = target: T1, 5-hydroxytryptamine receptor 2C (Homo sapiens) (UniProt P28335); details: Compound concentration 10.0 uM
# T1 sequence (whole entry): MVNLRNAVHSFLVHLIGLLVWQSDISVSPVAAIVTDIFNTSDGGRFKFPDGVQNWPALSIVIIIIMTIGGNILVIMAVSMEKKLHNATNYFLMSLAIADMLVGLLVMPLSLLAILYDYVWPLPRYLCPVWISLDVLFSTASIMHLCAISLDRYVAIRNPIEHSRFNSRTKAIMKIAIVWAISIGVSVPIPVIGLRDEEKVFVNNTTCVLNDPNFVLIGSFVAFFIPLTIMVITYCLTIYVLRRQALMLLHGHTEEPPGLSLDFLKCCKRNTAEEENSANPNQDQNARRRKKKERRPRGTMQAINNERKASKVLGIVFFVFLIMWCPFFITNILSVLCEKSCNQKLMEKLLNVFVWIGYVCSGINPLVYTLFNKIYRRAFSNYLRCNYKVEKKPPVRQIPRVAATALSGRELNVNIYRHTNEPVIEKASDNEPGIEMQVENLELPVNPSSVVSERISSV
# [32] = target: Sigma non-opioid intracellular receptor 1 (Homo sapiens) (UniProt Q99720); details: Compound concentration 10.0 uM
# ALK tyrosine kinase receptor (Homo sapiens), sequence (Q9UM73 19-1620 limits assumed): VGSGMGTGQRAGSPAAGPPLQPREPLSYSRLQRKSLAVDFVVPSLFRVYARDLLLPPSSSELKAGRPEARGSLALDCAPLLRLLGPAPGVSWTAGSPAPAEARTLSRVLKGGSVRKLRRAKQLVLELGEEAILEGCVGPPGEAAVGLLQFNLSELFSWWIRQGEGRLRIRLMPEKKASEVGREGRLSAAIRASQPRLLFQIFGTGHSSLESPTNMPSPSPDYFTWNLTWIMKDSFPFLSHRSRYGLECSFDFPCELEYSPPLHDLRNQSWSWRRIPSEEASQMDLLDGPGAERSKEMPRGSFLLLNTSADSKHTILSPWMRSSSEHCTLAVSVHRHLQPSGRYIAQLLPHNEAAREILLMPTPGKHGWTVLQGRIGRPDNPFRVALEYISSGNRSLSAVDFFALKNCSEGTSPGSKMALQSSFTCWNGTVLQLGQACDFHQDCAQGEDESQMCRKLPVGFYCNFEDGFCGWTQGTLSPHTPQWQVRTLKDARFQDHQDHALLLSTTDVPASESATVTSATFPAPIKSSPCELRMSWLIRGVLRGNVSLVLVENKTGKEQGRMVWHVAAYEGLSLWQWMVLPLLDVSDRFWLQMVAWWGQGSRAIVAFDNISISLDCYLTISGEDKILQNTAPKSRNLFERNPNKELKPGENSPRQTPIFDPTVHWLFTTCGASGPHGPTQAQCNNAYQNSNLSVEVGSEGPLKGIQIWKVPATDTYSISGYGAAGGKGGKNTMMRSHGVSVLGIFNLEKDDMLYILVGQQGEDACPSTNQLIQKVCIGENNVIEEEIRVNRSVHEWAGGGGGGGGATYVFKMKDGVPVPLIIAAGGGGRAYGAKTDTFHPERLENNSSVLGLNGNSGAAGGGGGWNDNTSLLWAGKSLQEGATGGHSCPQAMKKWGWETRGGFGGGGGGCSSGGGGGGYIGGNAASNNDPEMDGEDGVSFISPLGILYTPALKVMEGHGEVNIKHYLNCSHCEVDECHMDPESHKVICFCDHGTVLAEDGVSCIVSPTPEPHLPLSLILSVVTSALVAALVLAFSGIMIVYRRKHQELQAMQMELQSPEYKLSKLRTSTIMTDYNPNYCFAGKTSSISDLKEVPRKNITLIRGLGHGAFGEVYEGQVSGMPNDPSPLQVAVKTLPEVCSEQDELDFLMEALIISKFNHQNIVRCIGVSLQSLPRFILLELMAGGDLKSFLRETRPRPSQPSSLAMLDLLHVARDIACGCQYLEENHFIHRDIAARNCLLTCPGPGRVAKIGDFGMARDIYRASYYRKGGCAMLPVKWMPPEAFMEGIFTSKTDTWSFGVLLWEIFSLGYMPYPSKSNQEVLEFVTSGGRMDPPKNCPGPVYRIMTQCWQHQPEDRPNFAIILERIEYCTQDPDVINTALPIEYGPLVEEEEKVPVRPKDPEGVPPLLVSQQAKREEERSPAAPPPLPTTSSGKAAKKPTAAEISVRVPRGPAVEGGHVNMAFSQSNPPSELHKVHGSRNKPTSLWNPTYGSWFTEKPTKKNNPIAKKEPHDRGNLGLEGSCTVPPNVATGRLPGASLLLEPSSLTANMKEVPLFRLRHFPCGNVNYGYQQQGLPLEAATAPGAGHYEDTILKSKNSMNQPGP
SMILES,residual activity [1] [%],residual activity [2] [%],residual activity [3] [%],residual activity [4] [%],residual activity [5] [%],residual activity [6] [%],residual activity [7] [%],residual activity [8] [%],residual activity [9] [%],residual activity [10] [%],residual activity [11] [%],residual activity [12] [%],residual activity [13] [%],residual activity [14] [%],residual activity [15] [%],residual activity [16] [%],residual activity [17] [%],residual activity [18] [%],residual activity [19] [%],residual activity [20] [%],further results
CC(C)(O)c1cncc(-c2nc3ccc(F)cc3n2C2CC2)c1 [MSD-CYP11B2],100,89,77,100,89,100,100,100,100,100,100,100,88,100,84,90,97,100,100,100,residual activity [21]: 100%; residual activity [22]: 100%; residual activity [23]: 69%; residual activity [24]: 100%; residual activity [25]: 100%; residual activity [26]: 100%; residual activity [27]: 100%; residual activity [28]: 100%; residual activity [29]: 93%; residual activity [30]: 100%; inhibition [31]: 100%; inhibition [32]: 27.7%
FC(F)(F)c1ccc2c(c1)nc(-c1cccnc1)n2C1CC1 [MSD-CYP11B2-Negative-control],100,81,100,100,100,100,100,100,100,100,100,100,100,100,100,90,100,100,91,81,residual activity [21]: 100%; residual activity [22]: 100%; residual activity [23]: 71%; residual activity [24]: 100%; residual activity [25]: 100%; residual activity [26]: 100%; residual activity [27]: 95%; residual activity [28]: 100%; residual activity [29]: 100%; residual activity [30]: 100%; inhibition [31]: 30.8%; inhibition [32]: 16.9%

# Reference: ChEMBL document CHEMBL4507294, “Data for DCP probe MSD-CYP11B2” (2021)
